Results from PubChem BioAssay (NCI).
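Results reflect a 48-hour exposure of cells in 96-well plates to compound at five concentrations. At the GI50, growth is halved. The concentration for full growth arrest is given as TGI.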

Columns and labels:
Assay in all cases: NCI-60 cell line screen, 48 h
786-0 renal = tested on: 786-0 renal
A498 renal = tested on: A498 renal
A549 NSCLC = tested on: A549 NSCLC
ACHN renal = tested on: ACHN renal
BT-549 breast = tested on: BT-549 breast
CAKI-1 renal = tested on: CAKI-1 renal
CCRF-CEM leukemia = tested on: CCRF-CEM leukemia
COLO 205 colon = tested on: COLO 205 colon
DU-145 prostate = tested on: DU-145 prostate
EKVX NSCLC = tested on: EKVX NSCLC
HCC-2998 colon = tested on: HCC-2998 colon
HCT-116 colon = tested on: HCT-116 colon
HCT-15 colon = tested on: HCT-15 colon
HL-60(TB) leukemia = tested on: HL-60(TB) leukemia
HOP-62 NSCLC = tested on: HOP-62 NSCLC
HOP-92 NSCLC = tested on: HOP-92 NSCLC
HS 578T breast = tested on: HS 578T breast
HT29 colon = tested on: HT29 colon
IGROV1 ovarian = tested on: IGROV1 ovarian
K-562 leukemia = tested on: K-562 leukemia
KM12 colon = tested on: KM12 colon
LOX IMVI melanoma = tested on: LOX IMVI melanoma
M14 melanoma = tested on: M14 melanoma
MALME-3M melanoma = tested on: MALME-3M melanoma
MCF7 breast = tested on: MCF7 breast
MDA-MB-231 breast = tested on: MDA-MB-231 breast
MDA-MB-435 = tested on: MDA-MB-435
MOLT-4 leukemia = tested on: MOLT-4 leukemia
NCI-H226 lung = tested on: NCI-H226 lung
NCI-H23 lung = tested on: NCI-H23 lung
NCI-H460 lung = tested on: NCI-H460 lung
NCI-H522 lung = tested on: NCI-H522 lung
NCI/ADR-RES ovarian = tested on: NCI/ADR-RES ovarian
OVCAR-3 ovarian = tested on: OVCAR-3 ovarian
OVCAR-4 ovarian = tested on: OVCAR-4 ovarian
OVCAR-5 ovarian = tested on: OVCAR-5 ovarian
OVCAR-8 ovarian = tested on: OVCAR-8 ovarian
PC-3 prostate = tested on: PC-3 prostate
RPMI-8226 leukemia = tested on: RPMI-8226 leukemia
RXF 393 renal = tested on: RXF 393 renal
SF-268 CNS = tested on: SF-268 CNS
SF-295 CNS = tested on: SF-295 CNS
SF-539 CNS = tested on: SF-539 CNS
SK-MEL-2 melanoma = tested on: SK-MEL-2 melanoma
SK-MEL-28 melanoma = tested on: SK-MEL-28 melanoma
SK-MEL-5 melanoma = tested on: SK-MEL-5 melanoma
SK-OV-3 ovarian = tested on: SK-OV-3 ovarian
SN12C renal = tested on: SN12C renal
SNB-19 CNS = tested on: SNB-19 CNS
SNB-75 CNS = tested on: SNB-75 CNS
SR leukemia = tested on: SR leukemia
SW-620 colon = tested on: SW-620 colon
T-47D breast = tested on: T-47D breast
TK-10 renal = tested on: TK-10 renal
U251 CNS = tested on: U251 CNS
UACC-257 melanoma = tested on: UACC-257 melanoma
UACC-62 melanoma = tested on: UACC-62 melanoma
UO-31 renal = tested on: UO-31 renal

`O=C(/C(=C/c1ccccc1)CN1CCCCC1)c1ccccc1` was tested, and the GI50 (786-0 renal) was 1.79 µM, the TGI (786-0 renal) was 3.64 µM and the GI50 (A498 renal) was 1.63 µM. For the same compound, the TGI (A498 renal) was 3.1 µM, the GI50 (A549 NSCLC) was 1.84 µM and the TGI (A549 NSCLC) was 3.92 µM. The GI50 (ACHN renal) was 0.518 µM, the TGI (ACHN renal) was 1.44 µM and the GI50 (BT-549 breast) was 1.92 µM. For the same compound, the TGI (BT-549 breast) was 3.85 µM, the GI50 (CAKI-1 renal) was 0.337 µM and the TGI (CAKI-1 renal) was 2.84 µM. The GI50 (CCRF-CEM leukemia) was 0.346 µM, the TGI (CCRF-CEM leukemia) was over 45.3 µM and the GI50 (COLO 205 colon) was 0.447 µM. It also gave a TGI (COLO 205 colon) of 1.41 µM, a GI50 (DU-145 prostate) of 1.52 µM and a TGI (DU-145 prostate) of 5.78 µM. For the same compound, the GI50 (EKVX NSCLC) was 2.51 µM, the TGI (EKVX NSCLC) was 9.23 µM and the GI50 (HCC-2998 colon) was 1.68 µM. For the same compound, the TGI (HCC-2998 colon) was 3.11 µM, the GI50 (HCT-116 colon) was 0.468 µM and the TGI (HCT-116 colon) was 1.44 µM. For the same compound, the GI50 (HCT-15 colon) was 0.617 µM, the TGI (HCT-15 colon) was 3.34 µM and the GI50 (HL-60(TB) leukemia) was 1.22 µM. The TGI (HL-60(TB) leukemia) was 10.2 µM, the GI50 (HOP-62 NSCLC) was 2.88 µM and the TGI (HOP-62 NSCLC) was 9.93 µM. It also gave a GI50 (HOP-92 NSCLC) of 2.68 µM, a TGI (HOP-92 NSCLC) of 6.74 µM and a GI50 (HS 578T breast) of 5.03 µM. The TGI (HS 578T breast) was 65.6 µM, the GI50 (HT29 colon) was 0.518 µM and the TGI (HT29 colon) was 1.27 µM. It also gave a GI50 (IGROV1 ovarian) of 1.89 µM, a TGI (IGROV1 ovarian) of 6.25 µM and a GI50 (K-562 leukemia) of 0.566 µM. For the same compound, the TGI (K-562 leukemia) was over 33.6 µM, the GI50 (KM12 colon) was 2.09 µM and the TGI (KM12 colon) was 6.88 µM. It also gave a GI50 (LOX IMVI melanoma) of 0.364 µM, a TGI (LOX IMVI melanoma) of 1.5 µM and a GI50 (M14 melanoma) of 1.23 µM. The TGI (M14 melanoma) was 2.88 µM, the GI50 (MALME-3M melanoma) was 1.16 µM and the TGI (MALME-3M melanoma) was 3.58 µM. It also gave a GI50 (MCF7 breast) of 0.464 µM, a TGI (MCF7 breast) of 2.85 µM and a GI50 (MDA-MB-231 breast) of 1.96 µM. The TGI (MDA-MB-231 breast) was 5.75 µM, the GI50 (MDA-MB-435) was 0.57 µM and the TGI (MDA-MB-435) was 5.21 µM. It also gave a GI50 (MOLT-4 leukemia) of 0.403 µM, a TGI (MOLT-4 leukemia) of 31.8 µM and a GI50 (NCI-H226 lung) of 1.53 µM. The TGI (NCI-H226 lung) was 3.82 µM, the GI50 (NCI-H23 lung) was 1.49 µM and the TGI (NCI-H23 lung) was 4.3 µM. It also gave a GI50 (NCI-H460 lung) of 2.05 µM, a TGI (NCI-H460 lung) of 4.91 µM and a GI50 (NCI-H522 lung) of 0.365 µM. It also gave a TGI (NCI-H522 lung) of 0.884 µM, a GI50 (NCI/ADR-RES ovarian) of 1.06 µM and a TGI (NCI/ADR-RES ovarian) of 4.64 µM. The GI50 (OVCAR-3 ovarian) was 0.679 µM, the TGI (OVCAR-3 ovarian) was 2.16 µM and the GI50 (OVCAR-4 ovarian) was 2.05 µM. It also gave a TGI (OVCAR-4 ovarian) of 9.53 µM, a GI50 (OVCAR-5 ovarian) of 1.98 µM and a TGI (OVCAR-5 ovarian) of 3.98 µM. The GI50 (OVCAR-8 ovarian) was 0.616 µM, the TGI (OVCAR-8 ovarian) was 4.29 µM and the GI50 (PC-3 prostate) was 2.2 µM. It also gave a TGI (PC-3 prostate) of 9.26 µM, a GI50 (RPMI-8226 leukemia) of 0.8 µM and a TGI (RPMI-8226 leukemia) of 5.13 µM. For the same compound, the GI50 (RXF 393 renal) was 0.481 µM, the TGI (RXF 393 renal) was 1.21 µM and the GI50 (SF-268 CNS) was 2.63 µM. For the same compound, the TGI (SF-268 CNS) was 15 µM, the GI50 (SF-295 CNS) was 2.42 µM and the TGI (SF-295 CNS) was 7.08 µM. The GI50 (SF-539 CNS) was 2.8 µM, the TGI (SF-539 CNS) was 10.1 µM and the GI50 (SK-MEL-2 melanoma) was 1.6 µM. The TGI (SK-MEL-2 melanoma) was 4.01 µM, the GI50 (SK-MEL-28 melanoma) was 1.63 µM and the TGI (SK-MEL-28 melanoma) was 3.5 µM. The GI50 (SK-MEL-5 melanoma) was 1.43 µM, the TGI (SK-MEL-5 melanoma) was 2.94 µM and the GI50 (SK-OV-3 ovarian) was 2.75 µM. The TGI (SK-OV-3 ovarian) was 7.69 µM, the GI50 (SN12C renal) was 1.67 µM and the TGI (SN12C renal) was 4.76 µM. The GI50 (SNB-19 CNS) was 3.9 µM, the TGI (SNB-19 CNS) was 15.7 µM and the GI50 (SNB-75 CNS) was 3.76 µM. It also gave a TGI (SNB-75 CNS) of 17.8 µM, a GI50 (SR leukemia) of 0.271 µM and a TGI (SR leukemia) of 5.78 µM. It also gave a GI50 (SW-620 colon) of 0.398 µM, a TGI (SW-620 colon) of 1.53 µM and a GI50 (T-47D breast) of 0.801 µM. It also gave a TGI (T-47D breast) of 3.2 µM, a GI50 (TK-10 renal) of 0.662 µM and a TGI (TK-10 renal) of 1.74 µM. It also gave a GI50 (U251 CNS) of 1.35 µM, a TGI (U251 CNS) of 3.22 µM and a GI50 (UACC-257 melanoma) of 1.25 µM. The TGI (UACC-257 melanoma) was 3.35 µM, the GI50 (UACC-62 melanoma) was 1.42 µM and the TGI (UACC-62 melanoma) was 4.36 µM. It also gave a GI50 (UO-31 renal) of 0.996 µM and a TGI (UO-31 renal) of 2.3 µM.
